Laboratory results reported in US8748173B2 (priority 1998, dated 2014).
Where “and” joins values, the source holds several entries; their conditions need not be identical. Equal entries are not always repeated.

System: Bacillus subtilis spores
Type: binding

Substance	concentration at which the peptide stained spores	binding to B. subtilis spores
Peptide 7183 consensus (RFTISRDNAKNTLYLQMSC; Peptide 7183 artificial peptide corresponding to consensus sequence in 7183 VH gene family.) [reference compound]	200 μg/ml and 100 μM	–
Peptide Anti-spore (RFTISRDNPKNTLFLQMTC; Peptide Anti-spore artificial peptide corresponding to consensus sequence in the framework 3 region of antibodies against Bacillus subtilis spores.)	2 μg/ml and 1 μM	bind strongly and specifically
